Experimental data published in patent US7348138B2, “Method of inducing cell death using West Nile virus capsid protein” (priority 2000, dated 2008).

Columns and labels:
splenic lymphocytes = test: Lymphoproliferative assay (tritiated thymidine incorporation, stimulation index); type: cell-based, mice
Method: To evaluate the T cell-mediated immune response against the WNV Cp gene product, an in vivo mouse experiment was set up. The quadriceps muscles of 6- to 8-week-old female BALB/c mice (Harlan Sprague Dawley, Inc., Indianapolis, Ind.) were injected with 100 μg of pWNVh-DJY, pWNVy-DJY, or pcDNA3.1 (without an insert) in PBS and 0.25% bupivacaine-HCl (Sigma, St Louis, Mo.). Two weeks later, the mice received a boost of another 100 μg DNA injections. Thirteen days after the boost injection, the mice were sacrificed, the spleens were harvested, and the lymphocytes were isolated and tested for cellular immune responses.
Harvested splenic lymphocytes were pooled for two mice in each immunized group and suspended to a concentration of 5×10^6 cells/ml. A 100 μl aliquot, containing 5×10^5 cells, was immediately added to each well of a 96-well, flat bottom microtiter plate. Reconstituted peptide, in vitro translated protein, or in vitro translation control were added to the wells, at concentrations of 5 μg/ml and 1 μg/ml (and 0.5 μg/ml for in vitro translated protein and in vitro translation control protein). Concanavalin A (Con A) was used as a positive proliferation control. The assay conditions were set up in triplicate. The cells were incubated at 37° C. in 5% CO2 for three days. One μCi of tritiated thymidine was added to each well and the cells were incubated for 18 hours at 37° C. The plate was harvested and the amount of incorporated tritiated thymidine was measured in a Beta Plate reader (Wallac, Turku, Finland). Stimulation Index was determined from the formula: Stimulation Index (SI)=(experimental count/spontaneous count). Spontaneous count wells included 5% fetal bovine serum which served as an irrelevant protein control.
The values presented for each condition are stimulation indices averaged over triplicate wells. For each immunization group tested, splenocytes were pooled from two mice within the group. “H” indicates splenocytes from the pWNVh-DJY-immunized group. “Y” indicates splenocytes from the pWNVh-DJY-immunized group of mice. “pcDNA3.1” indicates splenocytes from the pcDNA3.1-immunized control group of mice. Peptides 1, 2, and 3 are the WNVC-P1, WNVC-P2, and WNVC-P3 peptides described above. “Peptide 123” indicates a mixture of peptide 1, 2, and 3. “Y protein” indicates the Cp protein in vitro translated from the pWNVy-DJY construct. “Ctrl pro” indicates the in vitro translation control, generated with pcDNA3.1 vector containing no expressible insert, as described above. Detection of Intracellular IFN-γ by Flow Cytometry

[1] = test system: SH-SY5Y neuroblastoma cells; test: TUNEL analysis of cells incubated with peptide; type: cell-based; settings: 10 μg peptide per 1×10^5 cells, 24 hours
Method: Peptide WNVC-P3, as described in Example 3 and FIG. 11 above, was tested for its ability to induce apoptosis in cells in culture. Peptide WNVC-P3 was incubated with SH-SY5Y neuroblastoma cells (ATCC; Manassas, Va.) at a concentration of 10 μg peptide per 1×10^5 cells.

[2] = splenocytes from H (pWNVh-DJY-immunized) mice, protein or peptide 1 μg/ml
[3] = splenocytes from H (pWNVh-DJY-immunized) mice, protein or peptide 5 μg/ml
[4] = splenocytes from Y group of immunized mice, protein or peptide 1 μg/ml
[5] = splenocytes from Y group of immunized mice, protein or peptide 5 μg/ml
[6] = splenocytes from pcDNA3.1-immunized control mice, protein or peptide 1 μg/ml
[7] = splenocytes from pcDNA3.1-immunized control mice, protein or peptide 5 μg/ml

Substance | Stimulation Index (SI) (splenic lymphocytes; [2]) | Stimulation Index (SI) (splenic lymphocytes; [3]) | Stimulation Index (SI) (splenic lymphocytes; [4]) | Stimulation Index (SI) (splenic lymphocytes; [5]) | Stimulation Index (SI) (splenic lymphocytes; [6]) | Stimulation Index (SI) (splenic lymphocytes; [7]) | TUNEL-positive cells [1]
KRAMLSLIDGKGPIRFVLA [Peptide 2] | 1.3 | 1.7 | 1.8 | 1.6 | 1.0 | 0.9 | –
TLTSAINRRSSKQKKRGGKTGI [Peptide 3] | 2.0 | 1.5 | 1.4 | 1.1 | 0.7 | 0.8 | TUNEL-positive cells were identified
Concanavalin A [Con A, reference compound] | – | 686.5 | – | 366.9 | – | 71.8 | –
SKKPGGPGKSRAVNMLKRGMPR [Peptide 1] | 0.7 | 0.5 | 1.2 | 0.8 | 1.3 | 0.9 | –
